Data reported in ChEMBL document CHEMBL1201862, “PubChem BioAssay data set” (2004).
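Values below derive from 48-hour exposures of cells grown in 96-well plates, with endpoints linearly interpolated between the two concentrations bracketing the appropriate inhibition level. The concentration for 50% growth inhibition is given as GI50.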 Calls of active or inactive are those of the source. Cut-off read from the data, not from the text of the source: active = GI50 up to about 1.1 µM and inactive = higher.

Legend:
Assay in all cases: inhibition of tumour cell growth, NCI panel, 48 h
M14 = test system: M14
OVCAR-4 = test system: OVCAR-4
MDA-N = test system: MDA-N
HCT-116 = test system: HCT-116
EKVX = test system: EKVX
HCC 2998 = test system: HCC 2998
CCRF-CEM = test system: CCRF-CEM
SNB-19 = test system: SNB-19
UACC-62 = test system: UACC-62
SK-MEL-2 = test system: SK-MEL-2
SK-OV-3 = test system: SK-OV-3
MCF7 = test system: MCF7
MOLT-4 = test system: MOLT-4
A498 = test system: A498
OVCAR-5 = test system: OVCAR-5
OVCAR-8 = test system: OVCAR-8
CAKI-1 = test system: CAKI-1
COLO 205 = test system: COLO 205
SF-539 = test system: SF-539
HT-29 = test system: HT-29

Measured: GI50

CC(C)CC(NC(=O)C(C)(CI)Cc1ccccc1)C(=O)Nc1ccccc1 (centres undefined)
inactive: M14 > 100 µM | OVCAR-4 > 100 µM | MDA-N > 100 µM | HCT-116 31 µM | EKVX > 100 µM | HCC 2998 > 100 µM | CCRF-CEM > 100 µM | SNB-19 > 100 µM | UACC-62 > 100 µM | SK-MEL-2 > 100 µM | SK-OV-3 > 100 µM | MCF7 > 100 µM | MOLT-4 56.1 µM | A498 > 100 µM | OVCAR-5 > 100 µM | OVCAR-8 > 100 µM | CAKI-1 > 100 µM | COLO 205 > 100 µM | SF-539 > 100 µM

Cc1ccc(C(=O)N/N=C(\N=N\c2ccc(C(=O)O)cc2)c2ccc(N(CCC#N)CCC#N)cc2C)cc1
inactive: M14 > 100 µM | OVCAR-4 > 100 µM | MDA-N > 100 µM | HCT-116 > 100 µM | EKVX > 100 µM | HCC 2998 > 100 µM | CCRF-CEM > 100 µM | SNB-19 > 100 µM | SK-MEL-2 > 100 µM | HT-29 > 100 µM | SK-OV-3 80.7 µM | MCF7 > 100 µM | MOLT-4 > 100 µM | A498 53.8 µM | OVCAR-5 > 100 µM | OVCAR-8 > 100 µM | CAKI-1 > 100 µM | COLO 205 > 100 µM | SF-539 > 100 µM

CSC1=C(C#N)C(=O)N(c2ccc(Cl)cc2)C(=O)C1C#N (centres undefined)
inactive: M14 96.4 µM | OVCAR-4 > 100 µM | MDA-N > 100 µM | HCT-116 > 100 µM | EKVX > 100 µM | HCC 2998 > 100 µM | CCRF-CEM 44.9 µM | SNB-19 > 100 µM | UACC-62 > 100 µM | SK-MEL-2 > 100 µM | HT-29 > 100 µM | SK-OV-3 > 100 µM | MCF7 > 100 µM | MOLT-4 97.5 µM | A498 74.6 µM | OVCAR-5 > 100 µM | CAKI-1 > 100 µM | COLO 205 > 100 µM | SF-539 > 100 µM

O=c1cc(N2CCNCC2)nc2ccccn12
inactive: M14 > 100 µM | MDA-N > 100 µM | HCT-116 > 100 µM | EKVX > 100 µM | HCC 2998 > 100 µM | CCRF-CEM > 100 µM | SNB-19 > 100 µM | UACC-62 > 100 µM | SK-MEL-2 > 100 µM | HT-29 > 100 µM | SK-OV-3 > 100 µM | MCF7 > 100 µM | MOLT-4 > 100 µM | A498 > 100 µM | OVCAR-5 > 100 µM | OVCAR-8 > 100 µM | CAKI-1 > 100 µM | COLO 205 > 100 µM | SF-539 > 100 µM

CCOC(=O)CCC(NC(=O)Cc1ccc(Oc2nc3ccccc3nc2-c2ccccc2)cc1)C(=O)OCC (centres undefined)
inactive: M14 > 100 µM | OVCAR-4 56.4 µM | MDA-N > 100 µM | HCT-116 > 100 µM | EKVX > 100 µM | HCC 2998 > 100 µM | CCRF-CEM > 100 µM | SNB-19 50.6 µM | UACC-62 > 100 µM | SK-MEL-2 > 100 µM | HT-29 > 100 µM | SK-OV-3 58.6 µM | MCF7 91 µM | MOLT-4 > 100 µM | A498 > 100 µM | OVCAR-5 > 100 µM | CAKI-1 > 100 µM | COLO 205 > 100 µM | SF-539 29.9 µM

N#CC(C#N)=C/C=C/c1c(Cl)cccc1Cl
inactive: M14 1.69 µM | OVCAR-4 1.72 µM | MDA-N 1.62 µM | HCT-116 1.34 µM | EKVX 3.33 µM | HCC 2998 1.84 µM | CCRF-CEM 1.34 µM | SNB-19 3.78 µM | UACC-62 1.5 µM | SK-MEL-2 1.7 µM | HT-29 1.7 µM | SK-OV-3 2.56 µM | MCF7 1.94 µM | MOLT-4 1.88 µM | A498 2.99 µM | OVCAR-8 1.53 µM | CAKI-1 1.93 µM | COLO 205 1.73 µM | SF-539 1.28 µM
